Laboratory results: ChEMBL document CHEMBL5291721, “A preclinical secondary pharmacology resource illuminates target-adverse drug reaction associations of marketed drugs” (Nat Commun, 2023)

Key:
[1] = biological target: cGMP-inhibited 3',5'-cyclic phosphodiesterase 3A (Homo sapiens, UniProt Q14432); assay type: functional
[2] = biological target: Beta-1 adrenergic receptor (Homo sapiens, UniProt P08588); assay type: functional
[3] = biological target: T1, Alpha-1A adrenergic receptor (Homo sapiens, UniProt P35348)
T1 sequence (P35348 whole entry): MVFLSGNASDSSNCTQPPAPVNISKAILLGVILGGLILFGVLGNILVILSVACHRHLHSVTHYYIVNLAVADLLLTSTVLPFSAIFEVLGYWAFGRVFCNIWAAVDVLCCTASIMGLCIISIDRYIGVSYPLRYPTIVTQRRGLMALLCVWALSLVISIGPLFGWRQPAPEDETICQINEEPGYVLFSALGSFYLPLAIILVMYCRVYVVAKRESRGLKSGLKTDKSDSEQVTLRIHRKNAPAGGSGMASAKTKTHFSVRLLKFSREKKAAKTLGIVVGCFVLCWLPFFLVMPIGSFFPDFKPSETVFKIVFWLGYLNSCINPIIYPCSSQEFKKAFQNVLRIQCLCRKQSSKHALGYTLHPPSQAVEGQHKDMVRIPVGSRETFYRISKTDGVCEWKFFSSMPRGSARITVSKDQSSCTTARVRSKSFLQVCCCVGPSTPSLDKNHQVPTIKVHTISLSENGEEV

[4] = biological target: T2, Neuropeptide Y receptor type 1 (Homo sapiens, UniProt P25929)
T2 sequence (P25929 whole entry): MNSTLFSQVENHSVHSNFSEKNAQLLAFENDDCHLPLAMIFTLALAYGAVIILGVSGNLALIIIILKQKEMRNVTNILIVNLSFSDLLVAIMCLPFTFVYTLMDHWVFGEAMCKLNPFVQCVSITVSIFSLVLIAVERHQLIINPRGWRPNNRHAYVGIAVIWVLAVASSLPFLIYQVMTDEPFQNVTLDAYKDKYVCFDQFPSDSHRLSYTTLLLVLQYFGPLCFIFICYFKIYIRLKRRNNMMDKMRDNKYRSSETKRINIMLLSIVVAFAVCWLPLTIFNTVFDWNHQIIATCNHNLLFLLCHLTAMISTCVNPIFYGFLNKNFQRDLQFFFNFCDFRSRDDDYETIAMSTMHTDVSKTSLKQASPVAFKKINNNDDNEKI

[5] = biological target: T3, Amine oxidase [flavin-containing] A (Homo sapiens, UniProt P21397); assay type: functional
T3 sequence (P21397 whole entry): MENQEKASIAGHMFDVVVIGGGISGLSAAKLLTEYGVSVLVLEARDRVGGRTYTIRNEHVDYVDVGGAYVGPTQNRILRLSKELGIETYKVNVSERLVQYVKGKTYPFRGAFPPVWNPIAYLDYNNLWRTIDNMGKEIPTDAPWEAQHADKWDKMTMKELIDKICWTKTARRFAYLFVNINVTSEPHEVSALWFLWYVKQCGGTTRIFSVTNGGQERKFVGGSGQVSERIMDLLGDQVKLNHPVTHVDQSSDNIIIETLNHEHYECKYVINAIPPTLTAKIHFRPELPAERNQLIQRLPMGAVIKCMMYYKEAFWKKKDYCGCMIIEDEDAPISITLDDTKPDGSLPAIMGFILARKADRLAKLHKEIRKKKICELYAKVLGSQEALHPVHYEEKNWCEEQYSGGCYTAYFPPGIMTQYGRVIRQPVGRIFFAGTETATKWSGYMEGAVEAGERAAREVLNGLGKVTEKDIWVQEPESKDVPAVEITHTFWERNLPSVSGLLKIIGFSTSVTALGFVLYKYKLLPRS

[6] = biological target: Sodium-dependent noradrenaline transporter (Homo sapiens, UniProt P23975)
Chain of Sodium-dependent noradrenaline transporter (P23975 whole entry): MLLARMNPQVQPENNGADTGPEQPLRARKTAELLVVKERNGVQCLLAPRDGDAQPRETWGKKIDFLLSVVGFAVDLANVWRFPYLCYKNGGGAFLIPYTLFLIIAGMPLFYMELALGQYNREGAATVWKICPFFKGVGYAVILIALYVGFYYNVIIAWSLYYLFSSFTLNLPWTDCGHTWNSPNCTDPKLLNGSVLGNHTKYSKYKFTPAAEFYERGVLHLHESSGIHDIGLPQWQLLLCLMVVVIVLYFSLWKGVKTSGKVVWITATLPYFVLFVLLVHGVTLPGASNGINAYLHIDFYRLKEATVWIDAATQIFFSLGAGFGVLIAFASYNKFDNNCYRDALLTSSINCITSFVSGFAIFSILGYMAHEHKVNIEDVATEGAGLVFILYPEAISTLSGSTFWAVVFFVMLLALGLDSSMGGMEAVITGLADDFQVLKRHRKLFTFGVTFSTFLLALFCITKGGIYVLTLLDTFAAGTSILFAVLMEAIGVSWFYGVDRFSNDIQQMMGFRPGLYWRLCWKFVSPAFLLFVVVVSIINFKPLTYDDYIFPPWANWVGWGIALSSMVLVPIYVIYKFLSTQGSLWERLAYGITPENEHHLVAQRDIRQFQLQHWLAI

[7] = biological target: T4, Beta-2 adrenergic receptor (Homo sapiens, UniProt P07550)
T4 sequence (P07550 whole entry): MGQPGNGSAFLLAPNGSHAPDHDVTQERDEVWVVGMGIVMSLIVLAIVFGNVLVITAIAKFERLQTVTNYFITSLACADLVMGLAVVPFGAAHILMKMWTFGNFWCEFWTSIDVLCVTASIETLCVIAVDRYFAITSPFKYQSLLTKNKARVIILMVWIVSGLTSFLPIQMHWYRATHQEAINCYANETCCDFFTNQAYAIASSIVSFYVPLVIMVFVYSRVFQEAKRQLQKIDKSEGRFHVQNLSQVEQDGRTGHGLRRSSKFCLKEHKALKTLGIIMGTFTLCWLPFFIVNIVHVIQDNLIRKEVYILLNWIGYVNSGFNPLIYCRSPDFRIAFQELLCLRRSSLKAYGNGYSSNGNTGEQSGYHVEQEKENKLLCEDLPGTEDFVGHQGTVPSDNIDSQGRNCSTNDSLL

Thromboxane A2 receptor [8] = biological target: T5, Thromboxane A2 receptor (Homo sapiens, UniProt P21731); assay type: functional, cell-based
T5 sequence (P21731 whole entry): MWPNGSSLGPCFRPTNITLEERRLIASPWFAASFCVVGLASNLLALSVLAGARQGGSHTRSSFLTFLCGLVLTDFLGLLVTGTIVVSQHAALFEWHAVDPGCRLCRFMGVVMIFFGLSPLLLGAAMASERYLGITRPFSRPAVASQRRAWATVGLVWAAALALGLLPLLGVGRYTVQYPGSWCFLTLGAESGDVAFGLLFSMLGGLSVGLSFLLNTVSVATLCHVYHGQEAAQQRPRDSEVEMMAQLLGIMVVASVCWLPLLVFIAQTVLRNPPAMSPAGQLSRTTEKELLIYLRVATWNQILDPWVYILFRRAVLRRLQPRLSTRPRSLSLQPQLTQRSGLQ

Acetylcholinesterase = Acetylcholinesterase (Homo sapiens, UniProt P22303); assay type: functional
Chain of Acetylcholinesterase (P22303 whole entry): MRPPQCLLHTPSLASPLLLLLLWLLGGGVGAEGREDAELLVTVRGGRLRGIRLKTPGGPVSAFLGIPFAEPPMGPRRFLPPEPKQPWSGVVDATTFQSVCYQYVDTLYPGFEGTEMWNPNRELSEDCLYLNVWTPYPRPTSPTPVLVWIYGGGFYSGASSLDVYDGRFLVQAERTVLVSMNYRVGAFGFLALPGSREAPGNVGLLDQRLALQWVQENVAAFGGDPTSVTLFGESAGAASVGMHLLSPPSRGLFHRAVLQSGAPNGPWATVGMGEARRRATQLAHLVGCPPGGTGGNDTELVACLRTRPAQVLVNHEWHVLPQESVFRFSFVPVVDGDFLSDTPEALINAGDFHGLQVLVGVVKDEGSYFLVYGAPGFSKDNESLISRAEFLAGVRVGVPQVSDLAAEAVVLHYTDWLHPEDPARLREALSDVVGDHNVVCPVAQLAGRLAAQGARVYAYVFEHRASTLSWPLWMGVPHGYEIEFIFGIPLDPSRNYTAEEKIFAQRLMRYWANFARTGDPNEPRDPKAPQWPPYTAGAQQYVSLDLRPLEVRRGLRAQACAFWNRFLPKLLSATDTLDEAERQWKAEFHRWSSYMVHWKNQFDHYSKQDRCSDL

Prothrombin = Prothrombin (Homo sapiens, UniProt P00734); assay type: functional
Thromboxane A2 receptor [9] = biological target: T5, Thromboxane A2 receptor
Melanocortin receptor 4 = Melanocortin receptor 4 (Homo sapiens, UniProt P32245)
Chain of Melanocortin receptor 4 (P32245 whole entry): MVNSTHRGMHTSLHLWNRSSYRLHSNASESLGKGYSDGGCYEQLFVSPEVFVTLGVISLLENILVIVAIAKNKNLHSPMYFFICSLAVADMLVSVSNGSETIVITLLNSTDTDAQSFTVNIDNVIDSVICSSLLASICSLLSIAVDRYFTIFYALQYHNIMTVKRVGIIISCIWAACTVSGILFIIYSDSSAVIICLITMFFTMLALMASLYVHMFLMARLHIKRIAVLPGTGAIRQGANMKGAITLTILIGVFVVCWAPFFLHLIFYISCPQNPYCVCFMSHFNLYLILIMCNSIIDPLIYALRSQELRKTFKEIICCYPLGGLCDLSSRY

[10] = biological target: T4, Beta-2 adrenergic receptor; assay type: functional, cell-based
[11] = biological target: T6, Alpha-2B adrenergic receptor (Homo sapiens, UniProt P18089)
T6 sequence (P18089 whole entry): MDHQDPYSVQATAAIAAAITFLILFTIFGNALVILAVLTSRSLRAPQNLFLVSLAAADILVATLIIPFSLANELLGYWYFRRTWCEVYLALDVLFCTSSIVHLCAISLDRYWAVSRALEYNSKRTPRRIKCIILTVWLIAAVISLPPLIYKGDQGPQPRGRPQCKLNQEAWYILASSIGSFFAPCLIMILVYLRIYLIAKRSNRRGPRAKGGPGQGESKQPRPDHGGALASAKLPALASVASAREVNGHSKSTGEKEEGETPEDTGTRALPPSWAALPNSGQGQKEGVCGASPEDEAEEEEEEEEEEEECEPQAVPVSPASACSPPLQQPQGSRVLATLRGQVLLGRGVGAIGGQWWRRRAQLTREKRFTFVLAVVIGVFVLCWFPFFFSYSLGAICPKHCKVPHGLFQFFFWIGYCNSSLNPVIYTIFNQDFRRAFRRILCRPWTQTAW

Measured: AC50
Also: assay procedure not described here.

Chain of Beta-1 adrenergic receptor (P08588 whole entry): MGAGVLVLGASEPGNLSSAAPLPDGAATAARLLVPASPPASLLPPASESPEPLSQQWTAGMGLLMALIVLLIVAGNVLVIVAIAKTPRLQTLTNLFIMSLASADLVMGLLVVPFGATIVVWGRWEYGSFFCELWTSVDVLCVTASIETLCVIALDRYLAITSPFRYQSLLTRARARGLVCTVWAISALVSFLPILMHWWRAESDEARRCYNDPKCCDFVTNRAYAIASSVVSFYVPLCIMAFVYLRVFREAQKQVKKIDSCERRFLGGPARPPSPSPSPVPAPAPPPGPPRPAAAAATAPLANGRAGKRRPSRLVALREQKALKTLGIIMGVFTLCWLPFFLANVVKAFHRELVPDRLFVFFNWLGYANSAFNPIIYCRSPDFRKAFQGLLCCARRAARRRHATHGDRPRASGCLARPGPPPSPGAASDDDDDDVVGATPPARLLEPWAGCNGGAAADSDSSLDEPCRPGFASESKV
Chain of cGMP-inhibited 3',5'-cyclic phosphodiesterase 3A (Q14432 whole entry): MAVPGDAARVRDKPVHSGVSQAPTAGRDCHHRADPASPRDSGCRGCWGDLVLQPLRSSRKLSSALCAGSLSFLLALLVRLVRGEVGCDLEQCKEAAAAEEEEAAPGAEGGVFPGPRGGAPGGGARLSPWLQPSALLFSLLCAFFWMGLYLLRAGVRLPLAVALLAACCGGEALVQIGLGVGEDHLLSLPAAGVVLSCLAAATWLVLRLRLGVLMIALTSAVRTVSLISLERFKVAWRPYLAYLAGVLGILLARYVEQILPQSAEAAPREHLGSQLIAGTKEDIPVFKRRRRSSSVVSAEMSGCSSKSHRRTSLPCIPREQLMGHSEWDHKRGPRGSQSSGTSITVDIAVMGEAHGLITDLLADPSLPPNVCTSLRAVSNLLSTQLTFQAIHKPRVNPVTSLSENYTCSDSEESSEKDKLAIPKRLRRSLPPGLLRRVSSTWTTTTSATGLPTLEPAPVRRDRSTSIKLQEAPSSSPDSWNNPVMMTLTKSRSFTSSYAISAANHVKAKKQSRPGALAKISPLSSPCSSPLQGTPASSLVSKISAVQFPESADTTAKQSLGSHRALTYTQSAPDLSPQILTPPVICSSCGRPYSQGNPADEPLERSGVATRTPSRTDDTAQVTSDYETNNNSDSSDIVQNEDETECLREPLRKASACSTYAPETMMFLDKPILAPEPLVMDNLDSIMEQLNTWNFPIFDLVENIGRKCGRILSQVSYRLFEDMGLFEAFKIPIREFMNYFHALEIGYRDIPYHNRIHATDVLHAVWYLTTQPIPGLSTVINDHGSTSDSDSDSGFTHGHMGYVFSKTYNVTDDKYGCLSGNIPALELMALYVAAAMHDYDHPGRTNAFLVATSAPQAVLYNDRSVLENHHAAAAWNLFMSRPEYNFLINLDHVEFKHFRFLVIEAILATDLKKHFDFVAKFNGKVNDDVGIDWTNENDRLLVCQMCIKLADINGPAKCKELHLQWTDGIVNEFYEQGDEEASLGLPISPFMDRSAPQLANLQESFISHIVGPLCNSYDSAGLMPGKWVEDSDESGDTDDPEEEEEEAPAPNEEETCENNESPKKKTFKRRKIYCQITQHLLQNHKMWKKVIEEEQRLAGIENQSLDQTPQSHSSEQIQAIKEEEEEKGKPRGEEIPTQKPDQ

C[C@H]1O[C@H](O[C@H]2[C@H](O)[C@@H](O)[C@@H](O[C@H]3[C@H](O)[C@@H](O)C(O)O[C@@H]3CO)O[C@@H]2CO)[C@H](O)[C@@H](O)[C@@H]1N[C@H]1C=C(CO)[C@@H](O)[C@H](O)[C@H]1O (stereo partly specified) [ACARBOSE]
> 10 µM: [3]
> 30 µM: [2] | [4] | [5] | [6] | [7] | Thromboxane A2 receptor [8] | Acetylcholinesterase | Prothrombin | Thromboxane A2 receptor [9] | Melanocortin receptor 4 | [10]
17.6 µM: [1]

Oc1ncnc2[nH]ncc12 [ALLOPURINOL]
> 10 µM: [2] | [7]
> 30 µM: [1] | [4] | [5] | [6] | Thromboxane A2 receptor [8] | Acetylcholinesterase | Prothrombin | Thromboxane A2 receptor [9] | Melanocortin receptor 4 | [10]
2.88 µM: [3]

COC(=O)[C@@H]1CC2=CC(=O)CC[C@]2(C)[C@@]23O[C@@H]2C[C@@]2(C)[C@@H](CC[C@@]24CCC(=O)O4)[C@H]13 [EPLERENONE]
> 30 µM: [11] | [2] | [4] | Thromboxane A2 receptor [9] | Melanocortin receptor 4 | [10]
> 10 µM: [3] | [7]

CC(C(=O)O)c1ccc(N2CC=CC2)c(Cl)c1 (stereo unspecified) [PIRPROFEN]
> 30 µM: [1] | [4] | [5] | [6] | Thromboxane A2 receptor [8] | Acetylcholinesterase | Prothrombin | Thromboxane A2 receptor [9] | Melanocortin receptor 4 | [10]
> 10 µM: [11] | [2] | [3] | [7]

O=C(CCCCCCC(=O)Nc1ccccc1)NO [VORINOSTAT]
> 10 µM: [3] | [7]
> 30 µM: [11] | [2] | [4] | Thromboxane A2 receptor [9] | Melanocortin receptor 4 | [10]
